# Data reported in ChEMBL document CHEMBL1201862, “PubChem BioAssay data set” (2004).
#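 In this assay, cells in 96-well plates receive the compound at five concentrations for 48 hours. Endpoints are linearly interpolated between the surrounding concentrations. The concentration for 50% growth inhibition is given as GI50.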 The source made the active and inactive calls. Rule as the data show it: active = GI50 up to about 1.1 µM and inactive = higher.
# Tests used:
# Experiment in all cases: NCI tumour cell line growth inhibition, 48 h
# [1] = system: HOP-62
# [2] = system: COLO 205
# [3] = system: UO-31
# [4] = system: DLD-1
# [5] = system: SF-295
# [6] = system: XF498
# [7] = system: DMS-114
# [8] = system: SW-620
# [9] = system: NCI-H460
# [10] = system: HCC 2998
# [11] = system: EKVX
# [12] = system: KM-20L2
# [13] = system: SF-268
# [14] = system: M14
# [15] = system: CAKI-1
# [16] = system: SR
# [17] = system: RXF 631
# [18] = system: LXFL 529
# [19] = system: HOP-18
# [20] = system: K562
# [21] = system: OVCAR-4
# [22] = system: MOLT-4
# [23] = system: SK-MEL-28
# [24] = system: HCT-15
# [25] = system: HCT-116
# [26] = system: UACC-257
# [27] = system: SNB-78
# [28] = system: CCRF-CEM
# [29] = system: OVCAR-8
# [30] = system: 786-0
# [31] = system: LOX IMVI
# [32] = system: SNB-19
# [33] = system: A549
# [34] = system: HOP-92
# [35] = system: HT-29
# [36] = system: SK-OV-3
# [37] = system: SF-539
# [38] = system: IGROV-1
# [39] = system: U-251
# [40] = system: ACHN
# [41] = system: SK-MEL-5
# [42] = system: TK-10
# [43] = system: DMS-273
# [44] = system: A498
# [45] = system: SN12C
# [46] = system: OVCAR-5
# [47] = system: NCI-H226
# [48] = system: Malme-3M
# [49] = system: NCI-H23
# [50] = system: OVCAR-3
# [51] = system: KM12
# [52] = system: SNB-75
# [53] = system: RXF 393
# [54] = system: UACC-62
# [55] = system: RPMI-8226
# [56] = system: HL-60
# [57] = system: M19-MEL
# [58] = system: NCI-H522
# [59] = system: SK-MEL-2
smiles,measurement,setting,value
O=C(O)CCSC(=O)Nc1ccc(/N=N/c2ccccc2)cc1,GI50,[1],> 100 µM (inactive)
same,GI50,[2],> 100 µM (inactive)
same,GI50,[3],55.3 µM (inactive)
same,GI50,[4],> 100 µM (inactive)
same,GI50,[5],64 µM (inactive)
same,GI50,[6],> 100 µM (inactive)
same,GI50,[7],61.8 µM (inactive)
same,GI50,[8],> 100 µM (inactive)
same,GI50,[9],> 100 µM (inactive)
same,GI50,[10],> 100 µM (inactive)
same,GI50,[11],74 µM (inactive)
same,GI50,[12],> 100 µM (inactive)
same,GI50,[13],> 100 µM (inactive)
same,GI50,[14],> 100 µM (inactive)
same,GI50,[15],> 100 µM (inactive)
same,GI50,[16],37.9 µM (inactive)
same,GI50,[17],> 100 µM (inactive)
same,GI50,[18],61.1 µM (inactive)
same,GI50,[19],> 100 µM (inactive)
same,GI50,[20],80.5 µM (inactive)
same,GI50,[21],95.1 µM (inactive)
same,GI50,[22],30.2 µM (inactive)
same,GI50,[23],> 100 µM (inactive)
same,GI50,[24],> 100 µM
same,GI50,[25],> 100 µM (inactive)
same,GI50,[26],> 100 µM (inactive)
same,GI50,[27],> 100 µM (inactive)
same,GI50,[28],62.5 µM (inactive)
same,GI50,[29],61.1 µM (inactive)
same,GI50,[30],> 100 µM (inactive)
same,GI50,[31],> 100 µM (inactive)
same,GI50,[32],> 100 µM (inactive)
same,GI50,[33],> 100 µM (inactive)
same,GI50,[34],> 100 µM (inactive)
same,GI50,[35],> 100 µM (inactive)
same,GI50,[36],> 100 µM (inactive)
same,GI50,[37],> 100 µM (inactive)
same,GI50,[38],92.9 µM (inactive)
same,GI50,[39],64.6 µM (inactive)
same,GI50,[40],43.6 µM (inactive)
same,GI50,[41],> 100 µM (inactive)
same,GI50,[42],> 100 µM (inactive)
same,GI50,[43],> 100 µM (inactive)
same,GI50,[44],69.5 µM (inactive)
same,GI50,[45],> 100 µM (inactive)
same,GI50,[46],> 100 µM (inactive)
same,GI50,[47],> 100 µM (inactive)
same,GI50,[48],> 100 µM (inactive)
same,GI50,[49],> 100 µM (inactive)
same,GI50,[50],> 100 µM (inactive)
same,GI50,[51],> 100 µM (inactive)
same,GI50,[52],> 100 µM (inactive)
same,GI50,[53],> 100 µM (inactive)
same,GI50,[54],59.4 µM (inactive)
same,GI50,[55],> 100 µM (inactive)
same,GI50,[56],36.5 µM (inactive)
CC1OC(OC2CCCc3c(O)c4c(c(O)c32)C(=O)c2ccccc2C4=O)CC(N)C1O (stereo not given),GI50,[1],1.57 µM (inactive)
same,GI50,[2],1.62 µM (inactive)
same,GI50,[3],1.73 µM (inactive)
same,GI50,[4],1.33 µM (inactive)
same,GI50,[5],1.82 µM (inactive)
same,GI50,[6],1.93 µM (inactive)
same,GI50,[7],1.69 µM (inactive)
same,GI50,[8],1.33 µM (inactive)
same,GI50,[9],1.43 µM (inactive)
same,GI50,[10],2.07 µM (inactive)
same,GI50,[11],1.71 µM (inactive)
same,GI50,[12],2.01 µM (inactive)
same,GI50,[13],1.69 µM (inactive)
same,GI50,[57],1.78 µM (inactive)
same,GI50,[14],1.79 µM (inactive)
same,GI50,[15],1.43 µM (inactive)
same,GI50,[17],1.5 µM (inactive)
same,GI50,[18],1.55 µM (inactive)
same,GI50,[20],1.01 µM (active)
same,GI50,[21],1.68 µM (inactive)
same,GI50,[22],0.652 µM (active)
same,GI50,[23],1.88 µM (inactive)
same,GI50,[25],1.72 µM (inactive)
same,GI50,[26],1.62 µM (inactive)
same,GI50,[27],1.89 µM (inactive)
same,GI50,[28],1.2 µM (inactive)
same,GI50,[29],1.42 µM (inactive)
same,GI50,[58],1.64 µM (inactive)
same,GI50,[30],1.29 µM (inactive)
same,GI50,[31],1.61 µM (inactive)
same,GI50,[32],1.64 µM (inactive)
same,GI50,[33],1.62 µM (inactive)
same,GI50,[34],1.43 µM (inactive)
same,GI50,[35],1.47 µM (inactive)
same,GI50,[36],1.15 µM (inactive)
same,GI50,[37],1.56 µM (inactive)
same,GI50,[38],1.69 µM (inactive)
same,GI50,[39],1.86 µM (inactive)
same,GI50,[40],1.88 µM (inactive)
same,GI50,[41],1.82 µM (inactive)
same,GI50,[42],1.6 µM (inactive)
same,GI50,[44],1.7 µM (inactive)
same,GI50,[45],1.68 µM (inactive)
same,GI50,[46],1.91 µM (inactive)
same,GI50,[47],1.69 µM (inactive)
same,GI50,[48],1.82 µM (inactive)
same,GI50,[49],1.77 µM (inactive)
same,GI50,[50],1.34 µM (inactive)
same,GI50,[51],1.58 µM (inactive)
same,GI50,[52],1.35 µM (inactive)
same,GI50,[53],1.02 µM (active)
same,GI50,[59],1.75 µM (inactive)
same,GI50,[55],1.58 µM (inactive)
same,GI50,[56],1.75 µM (inactive)
